In patent US9969716B2, “Indole derivatives as modulators of methyl modifying enzymes, compositions and uses thereof” (Constellation Pharmaceuticals, Inc., priority 2013, dated 2018):

Key:
[1] = biological target: EZH2 (Homo sapiens, UniProt Q15910); test: EZH2 assay (rPRC2, 3H SAM methyl transfer to biotinylated oligonucleosomes, FlashPlate); format: biochemical
Method: EZH2 Assay: Assays were carried out by mixing rPRC2 together with biotinylated oligonucleosome substrates in the presence of the radio-labeled enzyme co-factor, S-adenosyl-L-methionine (^3H SAM) (Perkin Elmer) and monitoring the enzymatically mediated transfer of tritiated methyl groups from ^3H SAM to histone lysine residues. The amount of resulting tritiated methyl histone product was measured by first capturing the biotinylated oligonucleosomes in streptavidin (SAV) coated FlashPlates (Perkin Elmer), followed by a wash step to remove un-reacted ^3H SAM, and then counting on a TopCount NXT 384 well plate scintillation counter (Perkin Elmer). The final assay conditions for EZH2 were as follows: 50 mM Tris Buffer pH 8.5, 1 mM DTT, 69 μM Brij-35 detergent, 5.0 mM MgCl2, 0.1 mg/mL BSA, 0.2 μM ^3H SAM, 0.2 μM biotinylated oligonucleosomes, 3.6 μM H3K27me3 peptide and 2 nM EZH2.
A 12.5 μL volume of the HMT enzyme, H3K27me3 peptide and oligonucleosome substrate in assay buffer was added to each well of the assay plate using a Multidrop Combi (ThermoFisher). Compounds were pre-incubated with the enzyme for 20 min, followed by initiation of the methyltransferase reaction by addition of 12.5 μL of ^3H SAM in assay buffer (final volume=25 μL). The final concentrations of compounds ranged from a top default concentration of 80 μM down to 0.16 μM in ten 2-fold dilution steps. Reactions were carried out for 60 minutes and quenched with 20 μL per well of 1.96 mM SAH, 50 mM Tris pH 8.5, 200 mM EDTA. Stopped reactions were transferred to SAV coated Flashplates (Perkin Elmer), incubated for 120 min, washed with a plate washer, and then read on the TopCount NXT (1.0 min/well) to measure the amount of methyl histone product formed during the reaction.

[2] = tested on: H3K27me3 mark in HeLa cells; test: H3K27me3 Alpha Hela Assay (AlphaLISA); format: cell-based; conditions: Homo sapiens, 72 hrs, read-out: EZH2_Cell_H3K27me3_Alpha_HeLa (EC50_K27me3)
Method: Ten different doses of each test compound (in a series of 3-fold dilutions) were plated in duplicate 384-well tissue culture treated plates (Catalog #781080; Greiner Bio One; Monroe, N.C.). Hela cells grown in culture were trypsinized and counted using a Countess® cell counter (Catalog # C10281; Life Technologies, Grand Island, N.Y.). Cell were diluted to 67,000 cells per mL in 10% DMEM (Catalog #10569-010 Life Technologies, Grand Island, N.Y.) and 15 μL (1,000 cells) were plated into each well using the Biotek MicroFlo™ Select Dispenser (BioTek Instruments, Inc. Vermont, USA),) of the 384-well plate. Plates were incubated at 37° C./5% CO2 for 72 hrs. One of the duplicate plates was processed for HeLa assay and the other for viability.
To the plate processed for AlphaLISA was added 5 μL per well Cell-Histone Lysis buffer (1λ) (Catalog # AL009F1 Perkin Elmer; Waltham, Mass.) and the plate was incubated at RT for 30 minutes on a plate shaker with low speed (Model#4625-Q Thermo Scientific; Waltham, Mass.). Then, 10 μL per well Histone Extraction buffer (catalog # AL009F2; Perkin Elmer; Waltham, Mass.) was added and the plate further incubated at RT for 20 min on plate shaker with low speed. To each well was then added 10 μL per well of a 5× mix of anti-K27me3 acceptor beads plus Biotinylated anti-Histone H3 (C-ter) Antibody (diluted to 3 nM final) (Catalog #AL118 Perkin Elmer; Waltham, Mass.). Dilution of the acceptor beads and then anti-Histone H3 was with 1× Histone Detection buffer (Catalog # AL009F3 Perkin Elmer; Waltham, Mass.) which was produced diluted from the 10× stock provided. The plate was sealed with an aluminum plate sealer and incubated at 23° C. for 60 min. We then added 10 μL 5× solution of Streptavidin Donor beads (Catalog #6760002 Perkin Elmer; Waltham, Mass.) (20 μg/mL final in 1× Histone Detection Buffer), sealed the plate with Aluminum plate sealer and incubated at 23° C. for 30 min. The plates were then read using an EnVision-Alpha Reader (model #2104 Perkin Elmer; Waltham, Mass.).
Data from both assays was analyzed using Assay Assistant (Constellation Pharmaceuticals In-house product) and Activity Base (IDBS Ltd, Surrey, UK) template. Data files were imported to Assay Assistant and assay conditions were specified. A unique Analysis ID was created and the data files exported to Activity Base. An analysis template was created on Activity Base to measure dose-dependent inhibition of H3K27me3 mark and cell viability respectively. Readout of DMSO wells were used to normalize the data. Resulting curves were fitted using Activity base software Model 205 (IDBS Ltd, Surrey, UK). The data was checked for quality, validated and integrated in excel format using SARview (IDBS Ltd, Surrey, UK).

EZH2, sequence (Q15910 whole entry): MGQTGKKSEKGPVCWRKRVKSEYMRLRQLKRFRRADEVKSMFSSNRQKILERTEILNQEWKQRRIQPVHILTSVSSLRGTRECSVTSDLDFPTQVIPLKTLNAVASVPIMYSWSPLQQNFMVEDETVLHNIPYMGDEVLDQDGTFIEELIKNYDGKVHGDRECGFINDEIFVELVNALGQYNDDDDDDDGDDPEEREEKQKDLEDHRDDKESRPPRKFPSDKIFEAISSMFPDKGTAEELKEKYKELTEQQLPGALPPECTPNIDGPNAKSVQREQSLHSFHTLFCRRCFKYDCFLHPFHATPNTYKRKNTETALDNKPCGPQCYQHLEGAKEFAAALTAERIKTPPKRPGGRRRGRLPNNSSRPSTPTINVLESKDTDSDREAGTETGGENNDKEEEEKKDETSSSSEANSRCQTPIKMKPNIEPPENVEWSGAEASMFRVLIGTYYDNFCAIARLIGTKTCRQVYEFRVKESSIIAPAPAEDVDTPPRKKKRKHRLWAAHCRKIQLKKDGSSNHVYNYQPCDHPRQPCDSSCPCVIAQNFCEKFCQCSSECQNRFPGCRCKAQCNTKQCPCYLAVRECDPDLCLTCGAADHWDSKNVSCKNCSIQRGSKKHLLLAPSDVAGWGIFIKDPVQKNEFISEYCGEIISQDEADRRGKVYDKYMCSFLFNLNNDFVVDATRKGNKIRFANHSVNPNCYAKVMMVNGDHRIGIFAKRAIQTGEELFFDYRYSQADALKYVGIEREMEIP
EZH2, sequence (O75530 whole entry partner): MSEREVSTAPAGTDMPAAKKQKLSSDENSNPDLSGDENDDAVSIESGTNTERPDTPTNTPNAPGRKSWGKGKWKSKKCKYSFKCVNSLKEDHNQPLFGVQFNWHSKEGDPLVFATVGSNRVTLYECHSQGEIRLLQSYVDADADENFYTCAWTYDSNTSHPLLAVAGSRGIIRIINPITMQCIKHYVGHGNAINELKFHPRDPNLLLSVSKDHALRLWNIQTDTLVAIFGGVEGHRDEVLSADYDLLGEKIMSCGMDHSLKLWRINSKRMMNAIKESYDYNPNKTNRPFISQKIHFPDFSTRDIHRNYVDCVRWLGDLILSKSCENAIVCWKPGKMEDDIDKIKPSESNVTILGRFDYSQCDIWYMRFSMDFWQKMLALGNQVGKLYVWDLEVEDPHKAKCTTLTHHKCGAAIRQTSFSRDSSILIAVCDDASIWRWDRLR
EZH2, sequence (Q15022 whole entry partner): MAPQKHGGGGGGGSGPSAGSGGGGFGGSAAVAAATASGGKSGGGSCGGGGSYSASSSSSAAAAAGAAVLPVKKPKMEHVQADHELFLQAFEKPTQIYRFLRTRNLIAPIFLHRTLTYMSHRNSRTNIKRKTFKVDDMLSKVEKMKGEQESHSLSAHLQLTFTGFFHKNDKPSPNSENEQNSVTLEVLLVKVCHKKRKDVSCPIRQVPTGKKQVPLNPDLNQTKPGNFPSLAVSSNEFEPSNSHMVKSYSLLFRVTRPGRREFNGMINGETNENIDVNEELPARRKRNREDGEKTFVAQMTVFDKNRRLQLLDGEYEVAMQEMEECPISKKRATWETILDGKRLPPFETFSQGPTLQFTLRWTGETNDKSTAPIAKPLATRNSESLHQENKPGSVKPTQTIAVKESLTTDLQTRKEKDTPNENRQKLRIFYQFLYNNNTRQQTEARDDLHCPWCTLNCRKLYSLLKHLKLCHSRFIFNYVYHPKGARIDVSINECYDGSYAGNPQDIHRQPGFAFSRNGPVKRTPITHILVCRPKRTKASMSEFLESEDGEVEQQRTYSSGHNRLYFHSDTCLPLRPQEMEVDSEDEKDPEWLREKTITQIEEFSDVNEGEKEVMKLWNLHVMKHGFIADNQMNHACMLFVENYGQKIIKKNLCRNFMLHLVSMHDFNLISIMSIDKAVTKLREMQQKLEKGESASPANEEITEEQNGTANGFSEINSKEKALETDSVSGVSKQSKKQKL

Compound | IC50 [1] | EC50 [2]
CCC(C)(C)C(=O)N1CCC([C@@H](C)n2c(C)c(C(=O)NCc3c(OC)cc(C)[nH]c3=O)c3ccccc32)CC1 [Compound 233] | < 100 nM | < 400 nM
COc1cc(C)[nH]c(=O)c1CNC(=O)c1c(C)n([C@H](C)C2CCN(C(=O)C3CCCC3)CC2)c2ccccc12 [Compound 235] | < 100 nM | 400 to 2000 nM
COc1cc(C)[nH]c(=O)c1CNC(=O)c1c(C)n([C@H](C)C2CCN(C(=O)C(C)(C)OC)CC2)c2ccccc12 [Compound 236] | < 100 nM | < 400 nM
COc1cc(C)[nH]c(=O)c1CNC(=O)c1c(C)n([C@H](C)C2CCN(C(=O)Cn3ccnc3C)CC2)c2ccccc12 [Compound 237] | < 100 nM | > 2000 nM
COc1cc(C)[nH]c(=O)c1CNC(=O)c1c(C)n([C@H](C)C2CCN(Cc3cnn(C)c3)CC2)c2ccccc12 [Compound 238] | < 100 nM | > 2000 nM
COc1cc(C)[nH]c(=O)c1CNC(=O)c1c(C)n([C@H](C)C2CCN(Cc3nccn3C)CC2)c2ccccc12 [Compound 239] | < 100 nM | 400 to 2000 nM
COc1cc(C)[nH]c(=O)c1CNC(=O)c1c(C)n([C@H](C)C2CCN(Cc3cncnc3)CC2)c2ccccc12 [Compound 240] | < 100 nM | 400 to 2000 nM
COc1cc(C)[nH]c(=O)c1CNC(=O)c1c(C)n([C@H](C)C2CCN(Cc3ncccn3)CC2)c2ccccc12 [Compound 241] | < 100 nM | 400 to 2000 nM
COc1cc(C)[nH]c(=O)c1CNC(=O)c1c(C)n([C@H](C)C2CCN(C(=O)C3(F)CCN(C)CC3)CC2)c2ccccc12 [Compound 242] | < 100 nM | 400 to 2000 nM
COc1cc(C)[nH]c(=O)c1CNC(=O)c1c(C)n([C@H](C)C2CCN(C(=O)C3CCN(C)CC3)CC2)c2ccccc12 [Compound 243] | < 100 nM | > 2000 nM
COc1cc(C)[nH]c(=O)c1CNC(=O)c1c(C)n([C@H](C)C2CCN(Cc3cccnc3)CC2)c2ccccc12 [Compound 244] | < 100 nM | 400 to 2000 nM
COc1cc(C)[nH]c(=O)c1CNC(=O)c1c(C)n([C@H](C)C2CCN(Cc3ccncc3)CC2)c2ccccc12 [Compound 245] | < 100 nM | < 400 nM
COc1cc(C)[nH]c(=O)c1CNC(=O)c1c(C)n([C@H](C)C2CCN(Cc3ccnc(C)c3)CC2)c2ccccc12 [Compound 246] | < 100 nM | < 400 nM
COc1cc(C)[nH]c(=O)c1CNC(=O)c1c(C)n([C@H](C)C2CCN(C(=O)Cc3cc(C)no3)CC2)c2ccccc12 [Compound 247] | < 100 nM | 400 to 2000 nM
COc1cc(C)[nH]c(=O)c1CNC(=O)c1c(C)n([C@H](C)C2CCN(C(=O)N3CCC(F)(F)C3)CC2)c2ccccc12 [Compound 248] | < 100 nM | 400 to 2000 nM
COc1cc(C)[nH]c(=O)c1CNC(=O)c1c(C)n([C@H](C)C2CCN(C(=O)N3CCC(F)(F)CC3)CC2)c2ccccc12 [Compound 249] | < 100 nM | 400 to 2000 nM
COc1cc(C)[nH]c(=O)c1CNC(=O)c1c(C)n([C@H](C)C2CCN(Cc3ccc(C#N)cn3)CC2)c2ccccc12 [Compound 250] | < 100 nM | < 400 nM
COc1cc(C)[nH]c(=O)c1CNC(=O)c1c(C)n([C@H](C)C2CCN(Cc3ccnc(C(F)(F)F)c3)CC2)c2ccccc12 [Compound 251] | < 100 nM | < 400 nM
COc1cc(C)[nH]c(=O)c1CNC(=O)c1c(C)n([C@H](C)C2CCN(Cc3cc(C)nc(C)c3)CC2)c2ccccc12 [Compound 252] | < 100 nM | < 400 nM

Compound | IC50 [1] | EC50 [2]
COc1cc(C)[nH]c(=O)c1CNC(=O)c1c(C)n([C@H](C)C2CCN(C(C)(C)C(C)=O)CC2)c2ccccc12 [Compound 253] | < 100 nM | < 400 nM
COc1cc(C)[nH]c(=O)c1CNC(=O)c1c(C)n([C@H](C)C2CCN(C3CC3)CC2)c2ccccc12 [Compound 254] | < 100 nM | < 400 nM
COc1cc(C)[nH]c(=O)c1CNC(=O)c1c(C)n([C@H](C)C2CCN(Cc3ccn(C)n3)CC2)c2ccccc12 [Compound 255] | < 100 nM | > 2000 nM
COc1cc(C)[nH]c(=O)c1CNC(=O)c1c(C)n([C@H](C)C2CCN([S+]([O-])C(C)(C)C)CC2)c2ccccc12 (some centres unmarked) [Compound 256] | < 100 nM | < 400 nM
COc1cc(C)[nH]c(=O)c1CNC(=O)c1c(C)n([C@H](C)C2CCN(Cc3cncc(F)c3)CC2)c2ccccc12 [Compound 257] | < 100 nM | < 400 nM
COc1cc(C)[nH]c(=O)c1CNC(=O)c1c(C)n([C@H](C)C2CCN(S(=O)(=O)c3cccnc3)CC2)c2ccccc12 [Compound 258] | < 100 nM | 400 to 2000 nM
COc1cc(C)[nH]c(=O)c1CNC(=O)c1c(C)n([C@H](C)C2CCN(Cc3ccncn3)CC2)c2ccccc12 [Compound 259] | < 100 nM | < 400 nM
COc1cc(C)[nH]c(=O)c1CNC(=O)c1c(C)n([C@H](C)C2CCN(Cc3ccncc3F)CC2)c2ccccc12 [Compound 260] | < 100 nM | < 400 nM
COc1cc(C)[nH]c(=O)c1CNC(=O)c1c(C)n([C@H](C)C2CCN(Cc3cnccn3)CC2)c2ccccc12 [Compound 261] | < 100 nM | < 400 nM
COC(C)(C)CN1CCC([C@@H](C)n2c(C)c(C(=O)NCc3c(Cl)cc(C)[nH]c3=O)c3ccccc32)CC1 [Compound 262] | < 100 nM | < 400 nM
COc1cc(C)[nH]c(=O)c1CNC(=O)c1c(C)n([C@H](C)C2CCN(Cc3cccc(F)c3)CC2)c2ccccc12 [Compound 263] | < 100 nM | < 400 nM
COc1cc(C)[nH]c(=O)c1CNC(=O)c1c(C)n([C@H](C)C2CCN(Cc3ccnc(C#N)c3)CC2)c2ccccc12 [Compound 264] | < 100 nM | < 400 nM
COc1cc(C)[nH]c(=O)c1CNC(=O)c1c(C)n([C@H](C)C2CCN(C(=O)C3(F)CCC3)CC2)c2ccccc12 [Compound 265] | < 100 nM | < 400 nM
COc1cc(C)[nH]c(=O)c1CNC(=O)c1c(C)n([C@H](C)C2CCN(Cc3cc(C)ncn3)CC2)c2ccccc12 [Compound 266] | < 100 nM | < 400 nM
COc1cc(C)[nH]c(=O)c1CNC(=O)c1c(C)n([C@H](C)C2CCN(Cc3cccc(C)n3)CC2)c2ccccc12 [Compound 267] | < 100 nM | < 400 nM
COc1cc(C)[nH]c(=O)c1CNC(=O)c1c(C)n([C@H](C)C2CCN(Cc3cnccc3C#N)CC2)c2ccccc12 [Compound 268] | < 100 nM | < 400 nM
COc1cc(C)[nH]c(=O)c1CNC(=O)c1c(C)n([C@H](C)C2CCN(C(=O)C3CCOCC3)CC2)c2ccccc12 [Compound 269] | < 100 nM | 400 to 2000 nM
COc1cc(C)[nH]c(=O)c1CNC(=O)c1c(C)n([C@H](C)C2CCN(C(=O)C3CCOC3)CC2)c2ccccc12 (some centres unmarked) [Compound 270] | < 100 nM | > 2000 nM
